Reference: patent US7652047B2, “Phenylamino isothiazole carboxamidines as MEK inhibitors” (Ardea Biosciences, Inc., priority 2005, dated 2010)

Biological target: T1, MEK1^CA (human GST-MEK1, constitutively active, Ser218Asp and Ser222Asp) (Homo sapiens, UniProt Q02750, S218D/S222D)
T1 construct: GST; made in house; host or cells: Escherichia coli
Assay: MEK1 enzymatic activity assay (MEK1^CA / ERK2 / MBP, [γ-33P]ATP incorporation)
Assay type: biochemical
Conditions: Table 1, compounds of formula I; read-out: Avg IC50
Summary of the method: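 Cascade assay: 25 µl reactions with 0.002 nmol E. coli-expressed GST-MEK1 S218D/S222D, 0.02 nmol His-tagged mouse ERK2, 0.25 nmol MBP, 0.25 nmol unlabeled ATP and 0.1 µCi [γ-33P]ATP. Compound preincubated 30 min at ambient temperature with MEK1/ERK2; stopped with TCA, 33P-labelled protein filter-captured and scintillation-counted.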

T1 sequence (Q02750 whole entry S218D/S222D): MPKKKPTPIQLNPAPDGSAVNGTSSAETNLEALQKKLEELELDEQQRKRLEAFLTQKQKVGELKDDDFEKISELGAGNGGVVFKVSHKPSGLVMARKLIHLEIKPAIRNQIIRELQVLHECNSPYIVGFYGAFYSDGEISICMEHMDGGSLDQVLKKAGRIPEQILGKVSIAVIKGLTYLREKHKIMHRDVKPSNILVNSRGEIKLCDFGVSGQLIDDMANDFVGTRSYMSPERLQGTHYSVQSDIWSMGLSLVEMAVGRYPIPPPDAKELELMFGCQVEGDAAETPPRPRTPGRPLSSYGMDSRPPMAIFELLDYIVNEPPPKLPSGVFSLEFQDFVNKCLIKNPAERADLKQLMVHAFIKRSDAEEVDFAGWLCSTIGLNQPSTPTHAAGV

IC50 [nM]	Compound
1 to 100	Cc1cc(Oc2ccccc2)ccc1Nc1snc(O)c1C(=N)NC(C)C [compound 334]
1 to 100	Cc1cc(Oc2ccccc2)ccc1Nc1snc(O)c1C(=N)NC(C)CO (stereo not shown) [compound 335]
1 to 100	CC(CO)NC(=N)c1c(O)nsc1Nc1ccc(Oc2cccc3ccccc23)cc1 (stereo not shown) [compound 338]
1 to 100	CC(C)NC(=N)c1c(O)nsc1Nc1ccc(Oc2ccc(Br)c3ccccc23)cc1 [compound 339]
1 to 100	CC(C)NC(=N)c1c(O)nsc1Nc1ccc(Oc2cccc3ccccc23)cc1 [compound 340]
1 to 100	Cc1ccc(F)c(Oc2ccc(Nc3snc(O)c3C(=N)NC(C)CO)cc2)c1 (stereo not shown) [compound 348]
1 to 100	CC(C)NC(=N)c1c(O)nsc1Nc1ccc(Oc2cc(F)ccc2F)cc1 [compound 349]
1 to 100	CC(C)NC(=N)c1c(O)nsc1Nc1ccc(Oc2ccccc2F)cc1 [compound 356]
100 to 500	CC(C)NC(=N)c1c(O)nsc1Nc1ccc(Oc2cc(F)cc(C(F)(F)F)c2)cc1 [compound 358]
1 to 100	CC(CO)NC(=N)c1c(O)nsc1Nc1ccc(Oc2cccc(F)c2)c(F)c1 (stereo not shown) [compound 362]
> 500	CC(C)NC(=N)c1c(O)nsc1Nc1ccc(Oc2cccc(F)c2)c(F)c1 [compound 363]
1 to 100	CC(C)NC(=N)c1c(O)nsc1Nc1ccc(Oc2cccc(Cl)c2F)cc1 [compound 366]
1 to 100	CC(CO)NC(=N)c1c(O)nsc1Nc1ccc(Oc2ccc(F)cc2Cl)c(F)c1 (stereo not shown) [compound 370]
1 to 100	CC(C)NC(=N)c1c(O)nsc1Nc1ccc(Oc2cccc(C(F)(F)F)c2Cl)c(F)c1 [compound 373]
1 to 100	CC(CO)NC(=N)c1c(O)nsc1Nc1ccc(Oc2ccc(Cl)cc2Cl)c(F)c1 (stereo not shown) [compound 374]

More lines, now with the values behind:

Compound	IC50 [nM]
CC(CO)NC(=N)c1c(O)nsc1Nc1ccc(Oc2ccc(Br)cc2)c(F)c1 (stereo not shown) [compound 333]	1 to 100
CC(C)NC(=N)c1c(O)nsc1Nc1ccc(Oc2cccnc2)c(Cl)c1 [compound 336]	> 500
CC(CO)NC(=N)c1c(O)nsc1Nc1ccc(Oc2ccc(Br)c3ccccc23)cc1 (stereo not shown) [compound 337]	1 to 100
CC(C)NC(=N)c1c(O)nsc1Nc1ccc(Oc2cccc(Cl)c2Cl)cc1 [compound 341]	1 to 100
Cc1cccc(Cl)c1Oc1ccc(Nc2snc(O)c2C(=N)NC(C)CO)cc1 (stereo not shown) [compound 343]	> 500
Cc1cccc(Cl)c1Oc1ccc(Nc2snc(O)c2C(=N)NC(C)C)cc1 [compound 344]	> 500
Cc1cccc(Oc2ccc(Nc3snc(O)c3C(=N)NC(C)C)cc2)c1C [compound 345]	1 to 100
Cc1cccc(Oc2ccc(Nc3snc(O)c3C(=N)NC(C)CO)cc2)c1C (stereo not shown) [compound 346]	1 to 100
Cc1ccc(F)c(Oc2ccc(Nc3snc(O)c3C(=N)NC(C)C)cc2)c1 [compound 347]	1 to 100
CC(CO)NC(=N)c1c(O)nsc1Nc1ccc(Oc2cc(F)ccc2F)cc1 (stereo not shown) [compound 350]	1 to 100
CC(C)NC(=N)c1c(O)nsc1Nc1ccc(Oc2cccc(C(F)(F)F)c2F)cc1 [compound 353]	1 to 100
CC(C)NC(=N)c1c(O)nsc1Nc1ccc(Oc2cc(C(F)(F)F)ccc2F)cc1 [compound 355]	1 to 100
CC(C)NC(=N)c1c(O)nsc1Nc1ccc(Oc2ccc(F)cc2F)cc1 [compound 357]	1 to 100
CC(CO)NC(=N)c1c(O)nsc1Nc1ccc(Oc2ccc(Cl)cc2)c(Cl)c1 (stereo not shown) [compound 359]	100 to 500
CC(C)NC(=N)c1c(O)nsc1Nc1ccc(Oc2ccc(Cl)cc2)c(Cl)c1 [compound 361]	100 to 500
CC(C)NC(=N)c1c(O)nsc1Nc1ccc(Oc2cccc(C(F)(F)F)c2Cl)c(Cl)c1 [compound 364]	1 to 100
CC(C)NC(=N)c1c(O)nsc1Nc1ccc(Oc2cc(Cl)ccc2Cl)c(F)c1 [compound 367]	1 to 100
CC(C)NC(=N)c1c(O)nsc1Nc1ccc(Oc2ccc(F)cc2Cl)c(F)c1 [compound 369]	1 to 100
CC(CO)NC(=N)c1c(O)nsc1Nc1ccc(Oc2ccccc2F)cc1 (stereo not shown) [compound 372]	100 to 500
